The record followed here is PubChem BioAssay AID248 (DTP/NCI, 2004).

This assay has as its system L1210 leukemia ip in BDF1 mice, survival T/C. Briefly: NCI In Vivo Anticancer Drug Screen. Data for tumor model L1210 Leukemia (intraperitoneal) in B6D2F1 (BDF1) mice. Particulars: endpoint: mean survival time, higher = longer survival. The method, boiled down:
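Transplanted-tumor mice were given test agent; controls received vehicle only. Survival readings from the two groups were divided (treated over control).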

Where [1] appears, read: dose: 5.0 mg/kg/injection, schedule: Q01DX001 (ip), vehicle: saline.
The mark [2] stands for this setting: dose: 10.0 mg/kg/injection, schedule: Q01DX001 (ip), vehicle: saline.
Where [3] appears, read: dose: 20.0 mg/kg/injection, schedule: Q01DX001 (ip), vehicle: saline.
The mark [4] stands for this setting: dose: 40.0 mg/kg/injection, schedule: Q01DX001 (ip), vehicle: saline.
The mark [5] stands for this setting: dose: 100.0 mg/kg/injection, schedule: Q04DX003 (ip), vehicle: saline with Tween-80.
[6] abbreviates: dose: 200.0 mg/kg/injection, schedule: Q04DX003 (ip), vehicle: saline with Tween-80.
[7] abbreviates: dose: 400.0 mg/kg/injection, schedule: Q04DX003 (ip), vehicle: saline with Tween-80.
[8] abbreviates: dose: 50.0 mg/kg/injection, schedule: Q01DX001 (ip), vehicle: saline.
[9] abbreviates: dose: 100.0 mg/kg/injection, schedule: Q01DX001 (ip), vehicle: saline.
Setting [10] is: dose: 200.0 mg/kg/injection, schedule: Q01DX001 (ip), vehicle: saline.
Where [11] appears, read: dose: 400.0 mg/kg/injection, schedule: Q01DX001 (ip), vehicle: saline.
[12] abbreviates: dose: 100.0 mg/kg/injection, schedule: Q04DX003 (ip), vehicle: saline.
Setting [13] is: dose: 200.0 mg/kg/injection, schedule: Q04DX003 (ip), vehicle: saline.
[14] abbreviates: dose: 400.0 mg/kg/injection, schedule: Q04DX003 (ip), vehicle: saline.
[15] abbreviates: dose: 100.0 mg/kg/injection, schedule: Q01DX001 (ip), vehicle: carboxymethylcellulose (CMC).

Molecules are shown by their SMILES. Several values for one entry are separate records, joined by “and”; a condition that tells them apart may be missing. Equal values may be shown once. Inconclusive results and toxic doses are left out.

Regarding `COc1ccc([N+](=O)[O-])cc1C(F)(F)F`, the T/C reads like this: (dose: 100.0 mg/kg/injection, schedule: Q01DX009 (ip), vehicle: saline with Tween-80) 96 % of control; (dose: 200.0 mg/kg/injection, schedule: Q01DX009 (ip), vehicle: saline with Tween-80) 97 % of control; (dose: 400.0 mg/kg/injection, schedule: Q01DX009 (ip), vehicle: saline with Tween-80) 93 % of control.
As for `Cc1cc(O)c(O)c(S(=O)(=O)c2ccc(N)cc2)c1`, the T/C by setting is: (dose: 75.0 mg/kg/injection, schedule: Q01DX009 (ip), vehicle: carboxymethylcellulose (CMC)) 93 % of control; (dose: 150.0 mg/kg/injection, schedule: Q01DX009 (ip), vehicle: carboxymethylcellulose (CMC)) 89 % of control; (dose: 300.0 mg/kg/injection, schedule: Q01DX009 (ip), vehicle: carboxymethylcellulose (CMC)) 86 % of control.
For the compound `O=[As](O)(O[As](=O)(O)c1ccccc1)c1ccccc1`, the T/C was 103 % of control under setting [1], 103 % of control under setting [2], 103 % of control under setting [3] and 101 % of control under setting [4].
On to `CCN(CC)CCCNCC(Cc1ccccc1)c1ccccc1` (stereo not drawn), for which the T/C was 92 % of control (dose: 100.0 mg/kg/injection, schedule: Q04DX002 (ip), vehicle: saline) and 99 % of control (dose: 200.0 mg/kg/injection, schedule: Q04DX002 (ip), vehicle: saline).
Consider `O=c1c2cccc3c2-c2c4c(cccc14)cc1cccc(c3=O)c21`, for which the T/C is 94 % of control under setting [5], 89 % of control under setting [6] and 100 % of control under setting [7].
Turning to `CCOC(=O)N1C(=O)NC(=O)C1c1ccc(OC)cc1` (stereo not drawn), the T/C reads like this: under setting [8], 91 % of control; under setting [9], 97 % of control; under setting [10], 100 % of control; under setting [11], 102 % of control.
For the compound `CNCC(O)c1ccccc1` (stereo not drawn), the T/C under setting [9] is 96 % of control; the T/C under setting [12] was 94 % of control; the T/C under setting [10] was 97 % of control; the T/C under setting [13] was 96 % of control; the T/C under setting [11] was 92 % of control; the T/C under setting [14] was 100 % of control.
Consider `O=NN(CCF)C(=O)NC1CCC(NC(=O)N(CCF)N=O)CC1` (stereo not drawn), for which the T/C is 151 % of control (dose: 16.0 mg/kg/injection, schedule: Q01DX001 (ip), vehicle: carboxymethylcellulose (CMC)); 190 % of control (dose: 30.0 mg/kg/injection, schedule: Q01DX001 (ip), vehicle: other); 176 % of control (dose: 31.0 mg/kg/injection, schedule: Q01DX001 (ip), vehicle: carboxymethylcellulose (CMC)); 220 % of control (dose: 50.0 mg/kg/injection, schedule: Q01DX001 (ip), vehicle: other); 294 % of control (dose: 60.0 mg/kg/injection, schedule: Q01DX001 (ip), vehicle: other); 336 % of control (dose: 62.0 mg/kg/injection, schedule: Q01DX001 (ip), vehicle: carboxymethylcellulose (CMC)). The T/C is 300 % of control (dose: 80.0 mg/kg/injection, schedule: Q01DX001 (ip), vehicle: other); 315 % of control and 340 % of control (dose: 120.0 mg/kg/injection, schedule: Q01DX001 (ip), vehicle: other); 357 % of control (dose: 125.0 mg/kg/injection, schedule: Q01DX001 (ip), vehicle: carboxymethylcellulose (CMC)); 340 % of control (dose: 180.0 mg/kg/injection, schedule: Q01DX001 (ip), vehicle: other); 298 % of control (dose: 240.0 mg/kg/injection, schedule: Q01DX001 (ip), vehicle: other); 357 % of control (dose: 250.0 mg/kg/injection, schedule: Q01DX001 (ip), vehicle: carboxymethylcellulose (CMC)). Further, the T/C was 276 % of control (dose: 375.0 mg/kg/injection, schedule: Q01DX001 (ip), vehicle: carboxymethylcellulose (CMC)); 271 % of control (dose: 500.0 mg/kg/injection, schedule: Q01DX001 (ip), vehicle: carboxymethylcellulose (CMC)); 175 % of control (dose: 750.0 mg/kg/injection, schedule: Q01DX001 (ip), vehicle: carboxymethylcellulose (CMC)); 175 % of control (dose: 1000.0 mg/kg/injection, schedule: Q01DX001 (ip), vehicle: carboxymethylcellulose (CMC)).
For `COc1cc(Cc2nccc3cc(OC)c(OC)cc23)c(C(C)=O)c(OC)c1`, the T/C reads like this: (dose: 5.0 mg/kg/injection, schedule: Q01DX009 (ip), vehicle: saline) 113 % of control; (dose: 10.0 mg/kg/injection, schedule: Q01DX009 (ip), vehicle: saline) 118 % of control; (dose: 20.0 mg/kg/injection, schedule: Q01DX009 (ip), vehicle: saline) 109 % of control; (dose: 40.0 mg/kg/injection, schedule: Q01DX009 (ip), vehicle: saline) 99 % of control; (dose: 80.0 mg/kg/injection, schedule: Q01DX009 (ip), vehicle: saline) 95 % of control.
`Nc1ncnn1Cc1ccccc1`: the T/C runs as follows: under setting [9], 96 % of control; under setting [12], 101 % of control; under setting [10], 97 % of control; under setting [13], 106 % of control; under setting [11], 100 % of control; under setting [14], 101 % of control.
With `C[N+](C)(C)Cc1c(CC(O)(c2ccccc2)c2ccccc2)ccc2ccccc12`, the T/C reads like this: (dose: 50.0 mg/kg/injection, schedule: Q01DX001 (ip), vehicle: carboxymethylcellulose (CMC)) 102 % of control; under setting [15], 94 % of control.
As for `Nc1ncnc2c1ncn2C1CC(O)C(CO)O1` (stereo not drawn), the T/C was 101 % of control under setting [5]; 98 % of control under setting [12]; 98 % of control under setting [6]; 104 % of control under setting [13]; 98 % of control under setting [7]; 93 % of control under setting [14]. Also, the T/C reads like this: (dose: 440.0 mg/kg/injection, schedule: Q03HX024 (ip), vehicle: saline with Tween-80) 105 % of control; (dose: 660.0 mg/kg/injection, schedule: Q03HX024 (ip), vehicle: saline with Tween-80) 110 % of control; (dose: 1000.0 mg/kg/injection, schedule: Q03HX024 (ip), vehicle: saline with Tween-80) 104 % of control.
Take `CCCCN(CCCC)CCCNc1c2c(nc3ccccc13)CCCC2`: the T/C is 95 % of control under setting [1]; 95 % of control under setting [2]; 93 % of control under setting [3]; 89 % of control under setting [4]; 91 % of control under setting [8]; 93 % of control (dose: 80.0 mg/kg/injection, schedule: Q01DX001 (ip), vehicle: saline).
For the compound `CC(=O)OC1COC(NC(=O)NCCCl)C(OC(C)=O)C1OC(C)=O` (stereo not drawn), the T/C is, setting by setting: (dose: 100.0 mg/kg/injection, schedule: Q04DX003 (ip), vehicle: Klucel (hydroxypropylcellulose) (HPC)) 109 % of control; (dose: 200.0 mg/kg/injection, schedule: Q04DX003 (ip), vehicle: Klucel (hydroxypropylcellulose) (HPC)) 103 % of control; (dose: 400.0 mg/kg/injection, schedule: Q04DX003 (ip), vehicle: Klucel (hydroxypropylcellulose) (HPC)) 103 % of control.
`O=C1CC2CCCC(CCO)(C2)N1` (stereo not drawn): the T/C was 91 % of control under setting [15]; 94 % of control (dose: 200.0 mg/kg/injection, schedule: Q01DX001 (ip), vehicle: carboxymethylcellulose (CMC)); 103 % of control (dose: 400.0 mg/kg/injection, schedule: Q01DX001 (ip), vehicle: carboxymethylcellulose (CMC)).
For `COC(=O)N/N=C/c1cc(OC)ccc1O`, the T/C runs as follows: (dose: 100.0 mg/kg/injection, schedule: Q04DX002 (ip), vehicle: Klucel (hydroxypropylcellulose) (HPC)) 97 % of control; (dose: 200.0 mg/kg/injection, schedule: Q04DX002 (ip), vehicle: Klucel (hydroxypropylcellulose) (HPC)) 114 % of control; (dose: 400.0 mg/kg/injection, schedule: Q04DX002 (ip), vehicle: Klucel (hydroxypropylcellulose) (HPC)) 104 % of control.
